Assay results from patent US10730864B2, “RAD51 inhibitors and uses thereof” (THE REGENTS OF THE UNIVERSITY OF CALIFORNIA, priority 2015, dated 2020).
Read-outs that look alike come from different tables or passages of the source.

Test system: triple-negative human breast cancer cell line MDA-MB-468
Experiment: XTT cell killing / growth inhibition assay, MDA-MB-468
Format: cell-based
Method: Standard XTT assays with a four-day drug treatment procedure were performed to measure the dose dependent cytotoxicity of IBR analogs in cultured cells. In brief, cells were plated on 96-well dishes one day before the drug treatment, followed by drug treatment on day 2 and XTT assay on day 6 after drug addition by using a commercial cell proliferation kit (Roche Scientific) following the instructions.
Triplicate sets were measured and compiled for final data presentation.
To test the possibility of inhibiting triple-negative breast cancer, the newly synthesized IBR2 analogues IBR101-124 were screened of their growth inhibition abilities using an XTT assay.

[1] = MDA-MB-468, XTT assay, four-day drug treatment, read-out: IC50
[2] = growth inhibition, raw dataset for SAR analysis
[3] = Homo sapiens, 96 h, MDA-MB-468, XTT assay, four-day drug treatment, read-out: IC50
[4] = Homo sapiens, MDA-MB-468, growth inhibition, raw dataset for SAR analysis, read-out: pIC50 (converted)

| Compound | IC50 compared with that of the parental compound IBR2 (in words) (MDA-MB-468) | IC50 [1] [µM] | pIC50 [2] | IC50 [3] [µM] | IC50 [4] [µM] | growth inhibition activity (in words) (MDA-MB-468, XTT assay) |
| --- | --- | --- | --- | --- | --- | --- |
| O=S(=O)(Cc1cccc(F)c1)N1CCc2ccccc2[C@@H]1c1c[nH]c2ccccc12 [IBR105] | slightly lower | 14.2 | 4.85 | – | – | – |
| O=S(=O)(Cc1cccc(C(F)(F)F)c1)N1CCc2ccccc2[C@H]1c1c[nH]c2ccccc12 [IBR112] | – | 22.2 | 4.65 | – | – | – |
| O=S(=O)(Cc1ccccc1C(F)(F)F)N1CCc2ccccc2[C@@H]1c1c[nH]c2ccccc12 [IBR109] | slightly lower | 14.8 | 4.83 | – | – | – |
| O=S(=O)(Cc1ccccc1)N1Cc2ccccc2[C@H]1c1c[nH]c2ccccc12 [IBR121, (S)-3-(2-(benzylsulfonyl)isoindolin-1-yl)-1H-indole] | – | – | – | > 12 | ≥ 12 | – |
| COc1nccc2c(C3c4ccccc4C=CN3S(=O)(=O)Cc3ccccc3)c[nH]c12 (racemic) [IBR123] | significantly lower | 6.3 | 5.20 | – | – | – |
| O=S(=O)(Cc1ccc(F)cc1)N1CCc2ccccc2[C@@H]1c1c[nH]c2ccccc12 [IBR107] | slightly lower | 11.2 | 4.95 | – | – | – |
| O=S(=O)(Cc1ccccc1)N1CC=Cc2ccccc2[C@H]1c1c[nH]c2ccccc12 [IBR116] | – | > 50 | ≤ 4.30 | – | – | almost complete loss of function |
| Nc1ncc([C@@H]2c3ccccc3CCN2S(=O)(=O)Cc2ccccc2)s1 [IBR119, 5-((S)-2-Phenylmethanesulfonyl-1,2,3,4-tetrahydro-isoquinolin-1-yl)thiazol-2-ylamine] | – | – | – | > 25 | ≥ 25.1 | – |
| O=S(=O)(Cc1ccccc1)N1CCc2ccccc2[C@H]1c1n[nH]c2ccccc12 [IBR118, (S)-1-(1H-Indazol-3-yl)-2-phenylmethanesulfonyl-1,2,3,4-tetrahydro-isoquinoline] | slightly lower | – | – | 14.3 | 14.5 | – |
| O=S(=O)(Cc1ccccc1C(F)(F)F)N1CCc2ccccc2[C@H]1c1c[nH]c2ccccc12 [IBR110] | – | 16.7 | 4.78 | – | – | – |
| O=S(=O)(Cc1ccccc1)N1CCc2ccccc2[C@@H]1c1c[nH]c2ccccc12 [IBR101] | slightly lower | 11.7 | 4.93 | – | – | – |
| O=S(=O)(Cc1ccccc1)N1CCc2ccccc2[C@@H]1c1n[nH]c2ccccc12 [IBR117, (R)-1-(1H-Indazol-3-yl)-2-phenylmethanesulfonyl-1,2,3,4-tetrahydro-isoquinoline] | significantly lower | – | – | 9.5 | 9.55 | – |
| O=S(=O)(Cc1ccc(F)cc1)N1CCc2ccccc2[C@H]1c1c[nH]c2ccccc12 [IBR108] | – | 25.7 | 4.59 | – | – | – |
| COc1cc2c(C3c4ccccc4C=CN3S(=O)(=O)Cc3ccccc3)c[nH]c2cn1 (centres unmarked) [IBR122] | slightly lower | 12.7 | 4.90 | – | – | – |
| O=S(=O)(Cc1cccc(F)c1)N1CCc2ccccc2[C@H]1c1c[nH]c2ccccc12 [IBR106] | – | 17.2 | 4.76 | – | – | – |
| O=S(=O)(Cc1ccc(C(F)(F)F)cc1)N1CCc2ccccc2[C@H]1c1c[nH]c2ccccc12 [IBR114] | – | 20.7 | 4.68 | – | – | – |
| O=S(=O)(Cc1ccc(C(F)(F)F)cc1)N1CCc2ccccc2[C@@H]1c1c[nH]c2ccccc12 [IBR113] | slightly lower | 13.6 | 4.87 | – | – | – |
| O=S(=O)(Cc1ccccc1)N1CC=Cc2ccccc2[C@@H]1c1c[nH]c2ccccc12 [IBR115] | slightly lower | 14.7 | 4.83 | – | – | minimal change of activity |
| O=S(=O)(Cc1ccccc1F)N1CCc2ccccc2[C@@H]1c1c[nH]c2ccccc12 [IBR103] | slightly lower | 12.7 | 4.90 | – | – | – |
| O=S(=O)(Cc1ccccc1F)N1CCc2ccccc2[C@H]1c1c[nH]c2ccccc12 [IBR104] | – | 19.2 | 4.72 | – | – | – |
| O=S(=O)(Cc1ccccc1)N1CCc2ccccc2[C@H]1c1c[nH]c2ccccc12 [IBR102] | slightly lower | 13.2 | 4.88 | – | – | – |
| O=S(=O)(Cc1cccc(C(F)(F)F)c1)N1CCc2ccccc2[C@@H]1c1c[nH]c2ccccc12 [IBR111] | slightly lower | 11.1 | 4.95 | – | – | – |
| O=S(=O)(Cc1ccccc1)N1C=Cc2ccccc2C1c1c[nH]c2ncccc12 (centres unmarked) [IBR124] | significantly lower | 6.2 | 5.21 | – | – | – |
